Experiments:
NLRP3 inflammasome = target: T1, NLRP3 inflammasome (Mus musculus, UniProt Q8R4B8); test: Inhibition of LPS and ATP induced NLRP3 inflammasome activation in BMDMs (IL-1β level); type: cell-based, C57BL/6 mice; settings: read-out: IC50, inhibitory effect on activation of NLRP3 inflammasome
T1 construct: endogenous in cells; host or cells: primary bone marrow-derived macrophages (BMDMs) from female C57BL/6 mice, differentiated with rmM-CSF
Source text: NLRP3 is an important pattern recognition receptor, that can form the NLRP3 inflammasome through the adaptor ASC and pro-caspase-1. After activation, the NLRP3 inflammasome can mediate the activation of caspase-1, thus promoting the maturation and secretion of IL-1β. In order to determine whether the prepared guaianolide sesquiterpene lactone Compounds 1-8 can inhibit the activation of the NLRP3 inflammasome, we used LPS and ATP to induce the activation of the NLRP3 inflammasome, and observed the effects of Compounds 1-8 on the IL-1β level caused by NLRP3 inflammasome activation.
C57BL/6 mice were sacrificed by cervical dislocation, and then soaked in 75% alcohol for 5-10 min. Subsequently, two hind legs of the mice were cut off with scissors. Next, the meat was removed, and the leg bones were left, which were then washed with PBS for three times. After severing the bone at both ends, a sterile syringe filled with cold serum-free RPMI 1640 medium was used to flush the bone marrow into a 15 mL centrifuge tube. Subsequently, the bone marrow was centrifuged at 1500 rpm for 5 min, and the supernatant was discarded. The residue was resuspended with 1 mL of erythrocyte lysate, blown repeatedly, and then stood for 7 min to lyse erythrocytes. After centrifugation at 1500 rpm for 5 min, the supernatant was discarded. The residue was resuspended with the RPMI 1640 medium containing 100 ng/ml of rmM-CSF, and then transferred to a 6-well culture plate for culture.
The BMDMs were seeded on 6-well cell culture plates and then treated with 100 ng/ml ultrapure LPS for 3 h. […] Subsequently, the cells were stimulated with 5 mM ATP for 45 min. The supernatants were collected into 1.5 mL EP tubes for subsequent detection of IL-1β level.

[1] = tested on: mouse acute liver injury model; test: Mouse acute liver injury model (CCl4); type: in vivo, C57BL/6 mice; settings: for Acta2 mRNA expression / Col1a1 mRNA expression / Tgfb1 mRNA expression: liver; for ALT / AST: serum, 3 days
Method: The mice were randomly divided into 8 groups, one of which was randomly selected as the normal group, and the other 7 groups were the model group, the parent drug 1 (0.4 and 4 μmol/kg), the hydrochloride 22 (4 μmol/kg), and the fumarate 23 (0.4 and 4 μmol/kg) groups, respectively, with 6 mice in each group. In addition to the normal group injected with 10 mL olive oil/kg, the other mice were injected intraperitoneally with 0.5 mL CCl4+9.5 mL olive oil/kg weight, i.e., the ratio of CCl4 to olive oil was 1:19. […] The mice in the normal group and model group were administered intragastrically the same volume of the solvent 0.5% CMC-Na.
1 h after the last administration, blood was collected from the venous plexus of fundus oculi, stood at room temperature for 2 h, and centrifuged at 3000 rpm for 20 min. The serum was aspirated, aliquoted, and frozen at −70° C. for subsequent use. After blood collection, the mice were sacrificed by cervical dislocation, and the abdominal cavity was opened. The livers were taken out, and rinsed twice with pre-cooled PBS. The liver left lobe tissues of the mice were cut, and fixed with 4% paraformaldehyde for 24-48 h. The remaining tissues were frozen at −70° C. for subsequent use.
μL of each sample was taken for experiments. The levels of AST and ALT in the serum of mice were detected according to the operation manual. The absorbance value was detected at the wavelength of 510 nm by a microplate reader, and the sample concentration (U/L) was calculated according to the standard curve.
The extraction method of total RNA from tissues, cDNA synthesis and the PCR amplification method are the same as those in Example 4.

[2] = tested on: chronic kidney injury models by the unilateral ureteral obstruction method; test: Mouse chronic kidney injury model (unilateral ureteral obstruction); type: in vivo, C57BL/6 mice; settings: for BUN (urea level in serum) / Scr (creatinine level in serum): 14 days; for BUN (urea level in serum): in mmol/L (unit assumed); for Scr (creatinine level in serum): in µmol/L (unit assumed); for Col1a1 mRNA expression / Havcr1 mRNA expression / Il1 mRNA expression / Il6 mRNA expression / Ngal mRNA expression / Tgfb1 mRNA expression / Tnf mRNA expression / α-Sma mRNA expression: kidney
Source text: Chronic kidney injury: The mice were randomly divided into 7 groups, one of which was randomly selected as the normal group, and the other 6 groups were the model group, the parent drug 1 (0.4 and 4 μmol/kg), the hydrochloride 22 (4 μmol/kg), and the fumarate 23 (0.4 and 4 μmol/kg) groups, respectively, with 6 mice in each group. In addition to mice in the normal group that had sham operations (i.e., there was no other operations, but only the left ureter was exposed), the other mice were established chronic kidney injury models by the unilateral ureteral obstruction method. Specifically, the abdominal skin was sterilized with iodophor and alcohol in sequence, and the abdominal skin was cut and separated layer by layer. After fully exposing and separating the left ureter, double obstruction was performed at the proximal bladder end of the ureter with a digestible suture line, followed by suture. On the first day of model establishment, the parent drug 1 (0.4 and 4 μmol/kg), the hydrochloride 22 (4 μmol/kg) and the fumarate 23 (0.4 and 4 μmol/kg) were administered intragastrically for 14 consecutive days. The mice in the normal group and model group were administered intragastrically the same volume of the solvent 0.5% CMC-Na.
1 h after the last administration, blood was collected from the venous plexus of fundus oculi, stood at room temperature for 2 h, and centrifuged at 3000 rpm for 20 min. The serum was aspirated, aliquoted, and frozen at −70° C. for subsequent use. After blood collection, the mice were sacrificed by cervical dislocation, and the abdominal cavity was opened. The kidneys were taken out, rinsed twice with pre-cooled PBS after the perirenal fats and capsules were peeled off, and then fixed with 4% paraformaldehyde for 24-48 h, embedded in paraffin and stained with HE. The remaining tissues were frozen at −70° C. for subsequent use.
μL serum was taken from each sample for the detection of creatinine and urea levels. Samples were added in accordance with the instructions of the kit strictly. After incubation at 37° C., the absorbance value was measured in a microplate reader, and the content levels of detection indicators in each group were calculated according to the standard curve.
The extraction of total RNA from animal tissues, cDNA synthesis and PCR amplification are as in above examples.

T1 sequence (Q8R4B8 whole entry): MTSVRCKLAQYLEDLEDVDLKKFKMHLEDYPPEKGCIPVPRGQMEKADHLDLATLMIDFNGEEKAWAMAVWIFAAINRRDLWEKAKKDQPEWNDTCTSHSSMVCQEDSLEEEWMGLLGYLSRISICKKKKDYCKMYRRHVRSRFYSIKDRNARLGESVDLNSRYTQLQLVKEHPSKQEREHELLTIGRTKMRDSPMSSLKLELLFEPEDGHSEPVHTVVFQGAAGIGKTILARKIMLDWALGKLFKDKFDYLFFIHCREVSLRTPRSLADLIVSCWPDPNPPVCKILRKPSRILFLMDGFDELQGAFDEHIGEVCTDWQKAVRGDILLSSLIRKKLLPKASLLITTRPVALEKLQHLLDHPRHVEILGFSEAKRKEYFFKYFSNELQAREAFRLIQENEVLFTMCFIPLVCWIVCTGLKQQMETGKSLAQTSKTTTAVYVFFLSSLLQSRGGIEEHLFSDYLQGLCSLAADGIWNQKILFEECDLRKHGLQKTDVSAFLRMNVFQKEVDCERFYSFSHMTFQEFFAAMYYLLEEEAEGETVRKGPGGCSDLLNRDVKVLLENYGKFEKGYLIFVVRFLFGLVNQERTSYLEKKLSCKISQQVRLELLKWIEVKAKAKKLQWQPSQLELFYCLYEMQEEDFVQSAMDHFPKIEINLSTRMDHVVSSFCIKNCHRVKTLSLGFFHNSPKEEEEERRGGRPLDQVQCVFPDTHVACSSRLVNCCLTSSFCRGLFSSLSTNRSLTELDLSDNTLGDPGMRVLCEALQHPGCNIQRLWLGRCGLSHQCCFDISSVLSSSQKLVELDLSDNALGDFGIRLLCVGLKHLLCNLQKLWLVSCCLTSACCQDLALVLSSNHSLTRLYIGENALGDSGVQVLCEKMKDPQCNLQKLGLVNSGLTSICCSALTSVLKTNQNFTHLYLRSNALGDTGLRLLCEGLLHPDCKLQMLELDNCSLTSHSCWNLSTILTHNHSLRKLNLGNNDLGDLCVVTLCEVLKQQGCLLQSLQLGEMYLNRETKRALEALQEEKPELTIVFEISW

SMILES	IC50 (NLRP3 inflammasome)	Acta2 mRNA expression ([1]; 0.4 μmol/kg)	Col1a1 mRNA expression ([1]; 0.4 μmol/kg)	Tgfb1 mRNA expression ([1]; 0.4 μmol/kg)	Acta2 mRNA expression ([1]; 4 μmol/kg)	Col1a1 mRNA expression ([1]; 4 μmol/kg)	Tgfb1 mRNA expression ([1]; 4 μmol/kg)	ALT ([1]; 0.4 μmol/kg i.g.)	ALT ([1]; 4 μmol/kg i.g.)	AST ([1]; 4 μmol/kg i.g.)	BUN (urea level in serum) ([2]; 4 μmol/kg i.g.)	Scr (creatinine level in serum) ([2]; 4 μmol/kg i.g.)	Col1a1 mRNA expression ([2]; 4 μmol/kg)	Havcr1 mRNA expression ([2]; 4 μmol/kg)	Il1 mRNA expression ([2]; 4 μmol/kg)	Il6 mRNA expression ([2]; 4 μmol/kg)	Ngal mRNA expression ([2]; 4 μmol/kg)	Tgfb1 mRNA expression ([2]; 4 μmol/kg)	Tnf mRNA expression ([2]; 4 μmol/kg)	α-Sma mRNA expression ([2]; 4 μmol/kg)	other results
C=C1C(=O)O[C@@H]2[C@@H]3[C@]4(CC[C@@]3(C)O)C[C@]4(C)CC[C@@H]12 [Compound 1]	< 40 nM	3.78	2.33	1.43	2.41	1.42	1.12	174.83 U/L	105.14 U/L	239.08 U/L	11.01	104.65	9.45	8.54	3.99	6.50	21.66	1.55	6.59	1.54	AST ([1]; 0.4 μmol/kg i.g.): 425.20 U/L; BUN (urea level in serum) ([2]; 0.4 μmol/kg i.g.): 18.41; Scr (creatinine level in serum) ([2]; 0.4 μmol/kg i.g.): 176.35; Col1a1 mRNA expression ([2]; 0.4 μmol/kg): 16.09; Havcr1 mRNA expression ([2]; 0.4 μmol/kg): 12.56; Il1 mRNA expression ([2]; 0.4 μmol/kg): 6.05; Il6 mRNA expression ([2]; 0.4 μmol/kg): 16.52; Ngal mRNA expression ([2]; 0.4 μmol/kg): 37.82; Tgfb1 mRNA expression ([2]; 0.4 μmol/kg): 2.04; Tnf mRNA expression ([2]; 0.4 μmol/kg): 6.41; α-Sma mRNA expression ([2]; 0.4 μmol/kg): 2.32
CN(C)C[C@@H]1C(=O)O[C@H]2[C@H]1CC[C@@]1(C)C[C@]13CC[C@@](C)(O)[C@H]23 [Compound 22]	40 to 80 nM	–	–	–	1.85	1.16	0.92	–	85.02 U/L	153.34 U/L	9.39	64.50	7.30	6.29	2.77	3.69	16.14	1.44	5.09	1.26	–
CN(C)C[C@@H]1C(=O)O[C@H]2[C@H]1CC[C@@]1(C)C[C@]13CC[C@@](C)(O)[C@H]23 [Compound 23]	40 to 80 nM	2.97	1.83	1.08	2.15	1.33	0.97	134.21 U/L	99.46 U/L	216.14 U/L	9.45	79.87	8.27	7.25	3.55	5.61	19.42	1.53	7.53	1.39	AST ([1]; 0.4 μmol/kg i.g.): 387.71 U/L; BUN (urea level in serum) ([2]; 0.4 μmol/kg i.g.): 17.63; Scr (creatinine level in serum) ([2]; 0.4 μmol/kg i.g.): 157.79; Col1a1 mRNA expression ([2]; 0.4 μmol/kg): 11.79; Havcr1 mRNA expression ([2]; 0.4 μmol/kg): 11.90; Il1 mRNA expression ([2]; 0.4 μmol/kg): 5.32; Il6 mRNA expression ([2]; 0.4 μmol/kg): 14.31; Ngal mRNA expression ([2]; 0.4 μmol/kg): 35.77; Tgfb1 mRNA expression ([2]; 0.4 μmol/kg): 1.76; Tnf mRNA expression ([2]; 0.4 μmol/kg): 7.10; α-Sma mRNA expression ([2]; 0.4 μmol/kg): 2.02
C=C1C(=O)O[C@@H]2[C@H]3C(C)=CC[C@@]34O[C@@]4(C)CC[C@@H]12 [arglabin, reference compound]	< 40 nM	–	–	–	–	–	–	–	–	–	–	–	–	–	–	–	–	–	–	–	–
